1 compound from patent US10335363B2, “Skin care composition and method of making the same” (The Procter & Gamble Company, priority 2015, dated 2019) can be followed below.

SMILES strings stand for the structures.

This data set deals with interleukin-18 (IL-18). The experiment in a line: Skin sensitization potential (IL-18 production in HEK). Conditions: fold change of IL-18 vs vehicle control, HEK lysates, 16 hours. The data set is classed as cell-based, human. The text has this: It is possible for a material to not be cytotoxic, and yet be unsafe due to provoking an allergic reaction upon skin contact. Typically, initial exposure to an allergen sensitizes the immune system, and following exposures cause an allergic response. Recent progress in understanding the mechanisms of skin sensitization identified interleukin-18 (IL-18) production in normal human epidermal keratinocytes (HEK) as a useful biomarker for skin contact sensitization (Corsini, et al., “Use of IL-18 Production In a Human Keratinocyte Cell Line to Discriminate Contact Sensitizers from Irritants and Low Molecular Weight Respiratory Allergens.” Toxicol In Vitro. 2009 August; 23(5):789-96; Teunis, et al., “Transfer of a Two-tiered Keratinocyte Assay: IL-18 Production by NCTC2544 to Determine the Skin Sensitizing Capacity and Epidermal Equivalent Assay to Determine Sensitizer Potency.” Toxicol In Vitro. 2013 April; 27(3):1135-50). […] Thus, IL-18 production in HEK was evaluated to determine sensitization potential.
Normal human adult epidermal keratinocytes (HEK) were cultured as described above for the cytoxicity evaluation. […] The cell lysates were collected, and IL-18 was quantified using Human IL-18 ELISA Kit (Catalog #7620, produced by MBL International Co., Woburn, Mass., USA). […] Fold changes of IL-18 levels between test articles and respective vehicle controls were calculated and compared to pPD. […]

For `Nc1ccc(N)cc1` [benchmark sensitizer, para-phenylenediamine], the “IL18 Maximum fold” value is on record as 7.8 fold).
